What all share (assay): inhibition of tumour cell growth, NCI panel, 48 h
In assay [1] the test system is SF-268 CNS.
In assay [2] the test system is HCT-116 colon.
Assay [3] deals with TK-10 renal.
Assay [4] deals with RXF 393 renal.
For assay [5], the system named is BT-549 breast.
Assay [6] concerns HCC-2998 colon.
Assay [7] concerns NCI-H460 lung.
The subject of assay [8] is LOX IMVI melanoma.
The subject of assay [9] is OVCAR-3 ovarian.
Assay [10] relates to HT29 colon.

The record followed here is PubChem BioAssay (NCI).

Where “and” joins values, the source holds several entries; their conditions need not be identical. Equal values may be shown once.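 1) Cells in 96-well plates. 2) Compound, 48 h, 5 concentrations. 3) Linear interpolation between surrounding doses. 4) Unreached endpoint = highest concentration. GI50 marks 50% less growth. TGI: total growth inhibition.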

Turning to `Cc1ccccc1C[P+](c1ccccc1)(c1ccccc1)c1ccccc1`, the GI50 in assay [1] was 1.89 µM; in assay [2] it was 0.896 µM; in assay [3], 1.2 µM; in assay [4] it was 4.5 µM; in assay [5], 2.7 µM; in assay [6] it was 0.888 µM. In addition, the GI50 is 1.73 µM in assay [7], 1.09 µM in assay [8], 1 µM in [9] and 0.849 µM in assay [10]. In addition, the TGI is > 100 µM in [1]; > 100 µM in [2]; 30.2 µM in assay [3]; 37.1 µM in assay [4]; 71.7 µM in [5]; 24.2 µM in [6]. The TGI was 12.9 µM in assay [7], > 100 µM in assay [8], > 100 µM in assay [9] and 14.8 µM in assay [10].
Consider `COC(=O)[C@H](Cc1cn(C)cn1)NC(=O)[C@@H](NC(=O)Nc1cc(C(F)(F)F)cc(C(F)(F)F)c1)C(C)(C)C`, for which the GI50 in [1], in [2], in [3], in [4], in assay [5] and in assay [6] was > 10 µM in each case. Besides, the GI50 in [7], in assay [8], in [9] and in assay [10] was > 10 µM throughout. Besides, the TGI in assay [1], in assay [2], in [3], in assay [4], in assay [5] and in assay [6] was > 10 µM throughout. Moreover, the TGI in assay [7], in assay [8], in [9] and in assay [10] was > 10 µM in each case.
`CCCCCCC(O)C(O)CCC(O)C1CCC(CCCCC(O)CC2=CC(C)OC2=O)O1` (configuration not stated): the GI50 in assay [1] was 20.3 µM; in assay [2], 1.28 µM; in assay [3], 22.3 µM; in assay [4], 22.9 µM; in assay [7], 10.5 µM; in assay [8], 4.48 µM. For the same molecule, the GI50 in [9] is 13.7 µM. For the same molecule, the TGI in assay [1] is 48.8 µM; in [2] it was 25.3 µM; in assay [3], > 100 µM; in [4] it was 39.7 µM; in assay [5], 66.8 µM; in [6] it was 34.5 µM. Also, the TGI in assay [7] was 26.9 µM; in assay [8], 5.02 µM and 27.7 µM; in assay [9], 5.22 µM and 28.7 µM; in assay [10], 6.82 µM.
Turning to `Cc1ccc(-n2c3c(c4c(CN)c(O)ccc42)CCc2ccccc2C3=O)cc1`, the GI50 in assay [1] was 9.06 µM; in assay [2], 9.24 µM; in assay [3], 13.3 µM; in assay [4], 17 µM; in [5], 10.7 µM; in [6], 4.05 µM. The GI50 is 7.33 µM in [7], 16.3 µM in [8], 10.2 µM in assay [9] and 30.3 µM in assay [10]. Besides, the TGI in assay [1] was determined as 28.3 µM; in assay [2], 21.4 µM; in assay [3], 26.3 µM; in [4] it was 36.7 µM; in assay [5] it was 31.8 µM; in assay [6], 15.6 µM. The TGI was 28.4 µM in assay [7], 32.2 µM in assay [8], 22.3 µM in [9] and > 100 µM in [10].
For `O=S(=O)(NCCNc1cc(-c2cn(-c3ccccc3)nc2-c2cccc(O)c2)ccn1)c1ccc(Br)cc1`, the GI50 in assay [1] was 2.25 µM; in [2], 2.44 µM; in [3], 2.78 µM; in assay [4], 2.38 µM; in assay [5] it was 2.52 µM; in assay [6], 2.14 µM. In addition, the GI50 in assay [7] was 2.39 µM; in assay [8] it was 1.71 µM; in assay [9], 2.01 µM; in assay [10], 2.17 µM. Also, the TGI in assay [1] was 7.06 µM; in assay [2], 6.48 µM; in assay [3], 9.65 µM; in assay [4] it was 6.96 µM; in assay [5], 6.87 µM; in assay [6] it was 4.1 µM. For the same molecule, the TGI in assay [7] worked out at 5.76 µM; in assay [8], 3.23 µM; in assay [9], 4.09 µM; in assay [10], 5.04 µM.
Turning to `CN1CCN(Cc2ccc(NC(=O)c3cccc(C#Cc4c(N)ncc5ccc(F)cc45)c3)cc2C(F)(F)F)CC1`, the GI50 was 0.719 µM in assay [1]; 0.816 µM in assay [2]; 1.14 µM in [3]; 0.697 µM in assay [4]; 2.11 µM in assay [5]; 0.969 µM in assay [6]. For the same molecule, the GI50 in assay [7] is 0.885 µM; in assay [8], 0.597 µM; in assay [9], 0.853 µM; in [10], 0.391 µM. Besides, the TGI was found to be 1.58 µM in assay [1]; 1.61 µM in [2]; 2.35 µM in [3]; 1.4 µM in [4]; 6.66 µM in [5]; 1.84 µM in [6]. Besides, the TGI worked out at 1.72 µM in assay [7], 1.25 µM in [8], 1.8 µM in assay [9] and 1.87 µM in assay [10].
Take `COCC(=O)NC/C=C/c1ccc2ncnc(Nc3ccc(Oc4ccc(C)nc4)c(C)c3)c2c1`: the GI50 was 15.7 µM in assay [1]; 13.7 µM in assay [2]; 7.52 µM in [3]; 13.9 µM in assay [4]; 6.81 µM in assay [5]; 20.1 µM in assay [6]. In addition, the GI50 was 4.74 µM in [7], 15 µM in assay [8], 10.4 µM in assay [9] and 15.5 µM in assay [10]. For the same molecule, the TGI in assay [1] was determined as 50.9 µM; in [2], 30.9 µM; in assay [3] it was 53.9 µM; in assay [4], 36.3 µM; in [5], 24.9 µM; in assay [6] it was 39.7 µM. Also, the TGI turned out to be 22.3 µM in assay [7], 33.8 µM in [8], 28 µM in assay [9] and 39.4 µM in assay [10].
Turning to `Clc1nc(-c2ccccc2)nc(Cl)c1Cl`, the TGI worked out at 30.7 µM in assay [1]; 17 µM in assay [2]; 42.6 µM in [3]; 18.9 µM in assay [4]; 35.6 µM in [5]; 20.5 µM in [6]. Also, the TGI in assay [7] is 42.7 µM; in [8], 5.6 µM; in [9], 21.7 µM; in [10] it was 27.6 µM.
Regarding `CCC1(N)C(=O)OCc2c1cc1n(c2=O)Cc2cc3ccccc3nc2-1` (configuration not stated), the TGI is > 100 µM in [1]; 23.4 µM and > 100 µM in [2]; > 100 µM in assay [3]; 63.1 µM and > 100 µM in [4]; > 100 µM in [5]; 41.1 µM and > 100 µM in assay [6]. Further, the TGI in assay [8] is 28.2 µM and 33.6 µM; in assay [9], 42.6 µM and > 100 µM; in assay [10], > 100 µM. Moreover, the GI50 in assay [2] is 6.51 µM; in [3] it was 51 µM; in assay [4] it was 15.4 µM; in [6], 14.1 µM; in [7], 1.72 µM; in assay [9], 17.2 µM.
Regarding `CC(C)=CCc1c(O)c(C(=O)CC(C)C)c(O)c2c(-c3ccccc3)cc(=O)oc12`, the GI50 in assay [1] was 12.5 µM; in [2], 7.27 µM; in assay [3], 9.98 µM; in assay [4] it was 15.8 µM; in [5], 7.31 µM; in [6], 11.7 µM. Also, the GI50 in assay [7] was 8.03 µM; in assay [8] it was 15.6 µM; in assay [9] it was 4.33 µM; in [10] it was 14.1 µM. For the same molecule, the TGI was > 50 µM in [1]; 43.3 µM in assay [2]; > 50 µM in assay [3]; > 50 µM in assay [4]; > 50 µM in [5]; > 50 µM in assay [6]. Further, the TGI in [7], in assay [8], in assay [9] and in assay [10] was > 50 µM each time.
Take `Cc1ccc2c(c1)-c1oc(=O)c(-c3cc4ccccc4oc3=O)cc1C(O)O2` (configuration not stated): the GI50 in assay [1] was 34.2 µM; in [2], 18 µM; in [3], 16.3 µM; in [4], 12.8 µM; in assay [5] it was 12.7 µM; in assay [6] it was 18.5 µM. The GI50 is 22.3 µM in assay [7], 17.6 µM in assay [8], 22.2 µM in assay [9] and 40.8 µM in assay [10]. Moreover, the TGI in assay [1] was > 100 µM; in assay [2], 33 µM; in assay [3], 34.9 µM; in assay [4], 48.2 µM; in [5], 25.5 µM; in assay [6] it was 36.2 µM. The TGI in assay [7] is > 100 µM; in assay [8], 31.4 µM; in assay [9], 42.1 µM; in assay [10] it was > 100 µM.
As for `CCCCCCC/C=C1\CCC(CN(C)C)C1=O` (configuration not stated), the TGI in assay [1] turned out to be 35.8 µM; in assay [2] it was 22.3 µM; in assay [3] it was 16.5 µM; in [4], 12.1 µM; in assay [5] it was 28 µM; in assay [6], 32.1 µM. Also, the TGI in [7] was 40.5 µM; in [8], 15 µM; in assay [9], 18 µM; in assay [10], 29.9 µM.
For `CCCC(=O)Nc1c(I)cc(I)c(CC(CC)C(=O)O)c1I` (configuration not stated), the GI50 in [1], in assay [2], in assay [3], in [4], in assay [5] and in assay [6] was > 100 µM each time. Also, the GI50 in assay [7], in [8], in assay [9] and in [10] was > 100 µM in each case. For the same molecule, the TGI in assay [1], in assay [2], in assay [3], in assay [4], in assay [5] and in [6] was > 100 µM each time. For the same molecule, the TGI in assay [7], in assay [8], in [9] and in assay [10] was > 100 µM in each case.
Turning to `CN1CCN(c2ccc(-c3cccc(CN4CCOCC4)c3)cc2NC(=O)c2c[nH]c(=O)cc2C(F)(F)F)CC1`, the GI50 was 62.5 µM in assay [1]; 16.4 µM in [2]; 68.7 µM in assay [3]; 23.1 µM in assay [4]; 23.7 µM in assay [5]; > 100 µM in assay [6]. Also, the GI50 was 45.8 µM in [7], 25.1 µM in assay [8], 31.7 µM in assay [9] and 17.9 µM in assay [10]. Further, the TGI in assay [1], in [2], in assay [3], in assay [4], in assay [5] and in assay [6] was > 100 µM each time. Moreover, the TGI in [7] is > 100 µM; in assay [8], > 100 µM; in assay [9] it was > 100 µM; in assay [10], 58.3 µM.
For `COc1ccccc1N1CCN(CCCOc2ccc(C(=O)/C=C3/C(=O)Nc4ccccc43)cc2)CC1`, the GI50 is 16.8 µM in [1]; 5.75 µM in assay [2]; 12.3 µM in [3]; 11.2 µM in [4]; 4.42 µM in [5]; 13.9 µM in [6]. Also, the GI50 was 13.5 µM in [7], 11.8 µM in [8], 7.37 µM in [9] and 3.13 µM in assay [10]. The TGI was 47.3 µM in assay [1]; 23.5 µM in assay [2]; > 67.7 µM in assay [3]; 27.5 µM in assay [4]; 16.1 µM in [5]; 32 µM in assay [6]. For the same molecule, the TGI in [7] was 65.5 µM; in assay [8], 26.4 µM; in assay [9], 42.3 µM; in assay [10], 12.2 µM.
